Columns and labels:
[1] = system: BMCs (Bone Marrow Cells) from growing female rats; assay: Ex-vivo bone marrow cultures from treated immature rats (ALP, mineralization); assay type: in vivo, Sprague Dawley rats; conditions: BMCs from growing rats treated with 5.0 mg/kg body weight for 30 days; vs controls
Source text: Right femur of control and C002 treated rats were collected aseptically in PBS during autopsy from the rats. Soft tissue was removed, and the ends of the femur was clipped off using sterile scissors, a hole was created in the knee joint end of each bone with a needle, and the marrow was flushed out from the shaft with control medium (CM) which consisted of α-MEM supplemented with 10% fetal calf serum, 100 U/ml penicillin, 100 U/ml streptomycin (Sigma, Chemical Co., St. Louis, Mo., USA). The cells were suspended in this medium, and the suspensions were spun down at 800 rpm for 5 min. Cells were resuspended in fresh CM and counted using a haemocytometer. […] ALP activity was determined as described by Akiyama et al. with modifications. Briefly, cells were washed once with PBS, then, ALP activity was measured by adding ALP buffer (1 M diethanolamine, 0.5 mM MgCl2, 1 mg/ml PNPP, pH 9.0), incubating in 37° C., and absorbance (405 nm) was read using a microplate spectrophotometer. Statistical significance was determined by paired two-tailed Student's t-tests. […]
Right femur of control and K058 treated rats were collected aseptically in PBS during autopsy from the rats. […] Cells were resuspended in fresh CM and counted using a haemocytometer. […] ALP activity was determined as described by Akiyama et al. with modifications. […] Statistical significance was determined by paired two-tailed Student's t-tests.

calvarial osteoblasts [2] = assay: Semi-quantitative RT-PCR of osteogenic genes; assay type: cell-based, neonatal Sprague-Dawley rats; conditions: 10^−7 M
Protocol: (§1) Neonatal rat calvarial cell cultures are prepared as described previously (Chattopadhyay et al., Endocrinology 145:3451-62, 2004) using slight modification. Briefly, for calvarial osteoblast cultures, frontal and parietal bones from neonatal Sprague-Dawley rats (1-3 day old) were digested in 0.1% collagenase/0.1% dispase in α-MEM to obtain 5 sequential digests. The second through fifth digests are combined and grown to confluence at 37° C. and 5% CO2 in air in α-MEM, supplemented with 10% fetal bovine serum (FBS), 2 mM glutamine, 100 U/ml penicillin-streptomycin, non-essential amino acid solution and sodium pyruvate.
RT-PCR was performed for assessing mRNA levels of Col1 (collagen type I), Cbfa-1 (Core binding factor-1), ALP (Alkaline phosphatase), OPN (osteopontin), BMP 2 (Bone morphogenic protein 2), OPG (Osteoprotegrin), and OCN (Osteocalcin). The house-keeping gene GAPDH (Glyceraldehyde-3-phosphate dehydrogenase) was used as the internal control in this study. RNAs were extracted at 0-, 4-, 8-, 12-, 24-, and 48 h. Total RNA was extracted using TRIzol reagent (Invitrogen). A single step RT PCR kit (Qaigen) was used to perform RT-PCR according to the manufacturer's instructions. Following gene specific primer pairs were used (Table 2).

calvarial osteoblasts [3] = assay: In vitro mineralization of calvarial osteoblasts (alizarin red-S, von kossa); assay type: cell-based, neonatal Sprague-Dawley rats; conditions: for Von kossa staining (mineralized nodules) compared with controls (vehicle): 21 days culture
Protocol: as §1
Ability of cells to produce mineralized matrix is important with regard to development of materials for bone regeneration. Mineralization of extracellular matrix by osteoblasts was determined using alizarin red-S (AR-S) assay combined with cetylpyridinium chloride (CPC) extraction. (Stanford et al, J. Biol. Chem. 270:9420-9428; 1995.) Alizarin red is a dye that binds selectively to nascent calcium salts and is widely used for calcium mineral histochemistry. Cells were seeded onto a six well plate containing 10000 cells/well in culture medium supplemented with 10 mM β-glycerophosphate and 50 μg/ml ascorbic acid with test compounds K012, K058, K068 and K0100 at 1 nM and 100 nM concentration. Treatment was given for 21 days and after completion of the treatment samples were rinsed with PBS followed by fixation (4% HCHO for 20 min). Photomicrographs of the stained wells were taken. Subsequently, alizarin red-S stain was extracted using 10% (w/v) cetylpyridinium chloride (CPC) in […] sodium phosphate, pH 7.0, for 15 min at room temperature, and the resulting solutions were read on a Microplate reader with a test wavelength of 540 nm against a reference wavelength of 620 nm. Mineralization nodules were also seen by Von kossa staining procedure (A. M. Chou et al. Materials Science and Engineering C 20 (2002) 77-83.) After 21 days culture, cells in tissue culture wells were washed with PBS and immersed in 5% (w/v) silver nitrate solution for 45 min. After rinsing with distilled water, they were fixed in 5% (w/v) sodium bicarbonate formalin for 8 min. Finally, they were immersed in 5% (w/v) sodium thiosulphate solution for 5 min and washed thoroughly with water for 15 min and photomicrographs were taken.

Row | mRNA levels of Alkaline phosphatase (ALP) (calvarial osteoblasts [2]; 0 to 48 h) | mRNA levels of core binding factor-1 (Cbfa-1) (calvarial osteoblasts [2]; 0 to 48 h) | Compound | ALP activity of BMCs (osteoblast differentiation) [1] | mineralization of BMCs (alizarin red-S) [1] | mRNA levels of OPG (Osteoprotegrin) (calvarial osteoblasts [2]) | mRNA levels of bone morphogenic protein-2 (BMP-2) (calvarial osteoblasts [2]; 0 to 48 h) | mRNA levels of collagen I (COL-1) (calvarial osteoblasts [2]; 0 to 48 h) | mRNA levels of osteocalcin (OCN) (calvarial osteoblasts [2]; 0 to 48 h) | osteoblast mineralization (summary of in vitro effects) (calvarial osteoblasts [3]) | Von kossa staining (mineralized nodules) compared with controls (vehicle) (calvarial osteoblasts [3])
1 | increased | increased | O=C1c2c(cc(O)c([C@@H]3OC(CO)[C@@H](O)[C@H](O)C3O)c2O)O[C@@H](c2ccc(O)c(O)c2)[C@@H]1O (stereo partly drawn) [K058, (2S,3S)-(+)-3′,4′,5,7-tetrahydroxydihydroflavonol-6-C-β-D-glucopyranoside] | significantly more | significantly more | increased | increased | increased | increased | promoted | increased
2 | – | – | O=c1c(O)c(-c2ccc(O)c(O)c2)oc2cc(O)c(C3O[C@H](CO)[C@@H](O)[C@H](O)[C@H]3O)c(O)c12 (stereo partly drawn) [K012, 6-Glucopyranosyl-3,3′,4′,5,7-pentahydroxyflavone] | – | – | – | – | – | – | promoted | increased
